Results from patent US20240116946A1 (Gilead Sciences, Inc., priority 2022, published 2024).
Where two headings read alike, the source gives them in different places.

Legend:
[1] = molecular target: recombinant SARS-CoV-2 Main protease (Mpro) (Severe acute respiratory syndrome coronavirus 2 (2019-nCoV) (SARS-CoV-2), UniProt P0DTD1); assay: Cov Mpro Biochemical IC50 Assay; settings: read-out: MPro IC50
SARS-CoV-2-NLuc = assay: microbe, parasite or virus in culture; format: cell-based, SARS Coronavirus 2
[2] = recombinant SARS-CoV-2 Mpro 7.5 nM, fluorogenic peptide substrate 40 μM
[3] = Severe acute respiratory syndrome coronavirus, 48 h, read-out: MPro EC50
[4] = recombinant SARS-CoV-2 Mpro, fluorogenic peptide substrate
[5] = Severe acute respiratory syndrome coronavirus, 48 h; read-out: MPro EC50

SMILES | IC50 [1, 2] [nM] | EC50 (SARS-CoV-2-NLuc; [3]) [nM] | IC50 [1, 4] [nM] | EC50 (SARS-CoV-2-NLuc; read-out: MPro EC50) [nM] | EC50 (SARS-CoV-2-NLuc; [5]) [nM]
COc1cc(-c2cc3c(s2)c(=O)n(-c2cncc4cnn(C)c24)c(=O)n3CCCC#N)c(Cl)cc1F [Example 658] | 14.4 | 22.8 | – | – | –
COc1ccc(Cl)c(-c2ccc3c(=O)n(-c4cncc5ccc(N6CC(OC)C6)cc45)c(=O)[nH]c3c2)c1 [Example 408] | 42.7 | 108 | – | – | –
COc1cc(-c2ccc3c(=O)n(-c4cncc5ccccc45)c(=O)n(CCC#N)c3c2)c(Cl)cc1F [Example 949] | 147 | 757 | – | – | –
CC(C)Oc1cncc(-n2c(=O)[nH]c3cc(-c4ccccc4Cl)sc3c2=O)c1 [Example 382] | – | 208 | 4600 | – | –
O=C1NCc2c1cccc2-c1cccc(Cl)c1-c1ccc2c(=O)n(-c3cncc4ccccc34)c(=O)[nH]c2c1 [Example 193] | – | 65.6 | 7.69 | – | –
COc1ccc(Cl)c(-c2ccc3c(=O)n(-c4cncc5ccc(N6CC[C@H](OC)C6)cc45)c(=O)[nH]c3c2)c1 [Example 409] | 15.7 | 77.4 | – | – | –
O=c1[nH]c2cc(-c3c(Cl)cccc3-c3ccc4c(c3)CCO4)ccc2c(=O)n1-c1cncc2ccccc12 [Example 179] | – | 84.8 | 195 | – | –
Cn1ncc2c(-n3c(=O)[nH]c4cc(-c5ccccc5Cl)sc4c3=O)cncc21 [Example 491] | 17.3 | 64.3 | – | – | –
COc1cnc(C#N)c(-c2cc3c(s2)c(=O)n(-c2cncc4cnn(C)c24)c(=O)n3CCC#N)c1 [Example 777] | 24.6 | 253 | – | – | –
O=c1[nH]c2cc(-c3c(Cl)cccc3-c3ccncc3)ccc2c(=O)n1-c1cncc2ccccc12 [Example 329] | – | 22.3 | 9.77 | – | –
COc1cc(-c2cc3[nH]c(=O)n(-c4cncc5cccc(C)c45)c(=O)c3s2)c(Cl)cc1F (single isomer, unassigned) [Example 996, 6-(2-chloro-4-fluoro-5-methoxyphenyl)-3-(5-methylisoquinolin-4-yl)thieno[3,2-d]pyrimidine-2,4(1H,3H)-dione] | 6390 | – | – | 1530 | –
COc1cc(-c2cc3c(s2)c(=O)n(-c2cncc4ccccc24)c(=O)n3CC#N)c(Cl)cc1F [Example 630, 2-[6-(2-chloro-4-fluoro-5-methoxy-phenyl)-3-(4-isoquinolyl)-2,4-dioxo-thieno[3,2-d]pyrimidin-1-yl]acetonitrile] | 6.31 | – | – | – | 9.35
Cc1cccc(C#N)c1-c1ccc2c(=O)n(-c3cncc4ccccc34)c(=O)[nH]c2c1 [Example 96] | – | 296 | 151 | – | –
O=c1[nH]c2cc(-c3ccccc3Cl)ncc2c(=O)n1-c1cncc2ccccc12 [Example 163, 7-(2-chlorophenyl)-3-(4-isoquinolyl)-1H-pyrido[4,3-d]pyrimidine-2,4-dione] | – | 932 | 489 | – | –
COc1ccc2cncc(-n3c(=O)[nH]c4cc(-c5ccccc5Cl)sc4c3=O)c2c1 [Example 175, 6-(2-chlorophenyl)-3-(6-methoxyisoquinolin-4-yl)thieno[3,2-d]pyrimidine-2,4(1H,3H)-dione] | – | 26.6 | 4.68 | – | –
COc1cc(-c2cc3c(s2)c(=O)n(-c2cncc(CO)c2)c(=O)n3CCC#N)c(Cl)cc1F [Example 1100, 3-(6-(2-chloro-4-fluoro-5-methoxyphenyl)-3-(5-(hydroxymethyl)pyridin-3-yl)-2,4-dioxo-3,4-dihydrothieno[3,2-d]pyrimidin-1(2H)-yl)propanenitrile] | 2.6 | – | – | – | 15
Cn1cnc(Cn2c(=O)n(-c3cncc4ccccc34)c(=O)c3sc(-c4ccccc4Cl)cc32)n1 (single isomer, unassigned) [Example 478, 6-(2-chlorophenyl)-3-(4-isoquinolyl)-1-[(1-methyl-1,2,4-triazol-3-yl)methyl]thieno[3,2-d]pyrimidine-2,4-dione] | 4290 | – | – | 8280 | –
Cc1nn(C(C)(C)C)cc1-c1cccc(Cl)c1-c1ccc2c(=O)n(-c3cncc4ccccc34)c(=O)[nH]c2c1 [Example 274] | – | 95.7 | 83.5 | – | –
O=c1c2sc(-c3ccccc3Cl)cc2n(Cc2cccnn2)c(=O)n1-c1cncc2ccccc12 [Example 154] | – | 193 | 124 | – | –
Cc1c(C2CC2)cncc1-n1c(=O)[nH]c2cc(-c3ccccc3Cl)sc2c1=O [Example 377] | – | 6230 | > 50000 | – | –
COc1cncc(-n2c(=O)c3sc(-c4ccccc4Cl)cc3n(CCC#N)c2=O)c1 [Example 836] | 21.7 | – | – | – | 40.5
COc1cc(-c2cc3c(s2)c(=O)n(-c2cncc4cnsc24)c(=O)n3CCC#N)c(Cl)cc1F [Example 922] | 2.8 | > 1000 | – | – | –
COc1cc(-c2cc3c(s2)c(=O)n(-c2cncc4c2c(C)nn4CC(F)(F)F)c(=O)n3CCC#N)c(Cl)cc1F [Example 919] | 926 | 366 | – | – | –
O=c1[nH]c2cc(-c3ccccc3Cl)sc2c(=O)n1-c1cncc2ccc(N3CCn4c(nnc4C(F)(F)F)C3)cc12 [Example 337] | – | 170 | < 2.68 | – | –
COc1cc(F)cc(Cl)c1-c1ccc2c(=O)n(-c3cncc4ccccc34)c(=O)[nH]c2c1 [Example 651] | 336 | 135 | – | – | –

SMILES | IC50 [1, 2] [nM] | EC50 (SARS-CoV-2-NLuc; [3]) [nM] | IC50 [1, 4] [nM] | EC50 (SARS-CoV-2-NLuc; read-out: MPro EC50) [nM] | EC50 (SARS-CoV-2-NLuc; [5]) [nM]
COc1cc(-c2cc3[nH]c(=O)n(-c4cncc5cccnc45)c(=O)c3cc2OC)c(C#N)cc1F [Example 684] | 13.5 | 119 | – | – | –
Cn1cc(-c2cccc(Cl)c2-c2ccc3c(=O)n(-c4cncc5ccccc45)c(=O)[nH]c3c2)c(C#N)n1 [Example 267] | – | 35.5 | 24.1 | – | –
COc1ccc(Cl)c(-c2ccc3c(=O)n(-c4cncc(C5CC5)c4)c(=O)[nH]c3c2)c1 [Example 191] | – | 91 | 73.8 | – | –
Cn1cnc(COc2ccc(Cl)c(-c3ccc4c(=O)n(-c5cncc6ccccc56)c(=O)[nH]c4c3)c2)n1 [Example 90] | – | 886 | 487 | – | –
COc1cc(-c2cc3[nH]c(=O)n(-c4cncc5nc(C)sc45)c(=O)c3s2)c(Cl)cc1F [Example 652] | 22.5 | 48.1 | – | – | –
COc1ccc(Cl)c(-c2cc3[nH]c(=O)n(-c4cncc5ccc(F)cc45)c(=O)c3s2)c1 [Example 623, 6-(2-chloro-5-methoxy-phenyl)-3-(6-fluoro-4-isoquinolyl)-1H-thieno[3,2-d]pyrimidine-2,4-dione] | 11.5 | – | – | – | 30
COc1cc(-c2ccc3c(=O)n(-c4cncc5ccccc45)c(=O)[nH]c3c2)c(Cl)cc1F [Example 299] | – | 36.1 | 72.4 | – | –
Cc1cncc(-n2c(=O)c3sc(-c4cc(Cl)ccc4C#N)cc3n(CCC#N)c2=O)c1 [Example 879] | 4.33 | – | – | – | 20.4
COc1cc(-c2cc3c(s2)c(=O)n(-c2cncc(C)c2C)c(=O)n3CCC#N)c(Cl)cc1F [Example 932] | 5.33 | 2.42 | – | – | –
COc1ccc(Cl)c(-c2ccc3c(=O)n(-c4cncc(C)c4OCC(F)(F)F)c(=O)[nH]c3c2)c1 [Example 375] | – | – | 345 | – | 632
COc1cc(-c2cc3c(s2)c(=O)n(-c2cncc4cnccc24)c(=O)n3CCC#N)c(Cl)cc1F [Example 917] | 7.5 | 6.09 | – | – | –
COc1ccc(C#N)c(-c2cc3[nH]c(=O)n(-c4cncc5ccc(N6CCn7c(nnc7C(F)(F)F)C6)cc45)c(=O)c3s2)c1 [Example 602] | 5.77 | 359 | – | – | –
COc1cc(-c2cc3c(s2)c(=O)n(-c2cncc4nc(C(F)(F)F)n(C)c24)c(=O)n3CCC#N)c(Cl)cc1F (single isomer, unassigned) [Example 974, 3-(6-(2-chloro-4-fluoro-5-methoxyphenyl)-3-(1-methyl-2-(trifluoromethyl)-1H-imidazo[4,5-c]pyridin-7-yl)-2,4-dioxo-3,4-dihydrothieno[3,2-d]pyrimidin-1(2H)-yl)propanenitrile] | 242 | – | – | 602 | –
COc1cnc(C#N)c(-c2ccc3c(=O)n(-c4cncc5ccccc45)c(=O)[nH]c3c2)c1 [Example 333] | – | 765 | 149 | – | –
Cc1cncc(-n2c(=O)c3sc(-c4ccc(F)cc4C#N)cc3n(CCC#N)c2=O)c1 [Example 880] | 10.6 | – | – | – | 42.3
COc1cc(-c2cc3[nH]c(=O)n(-c4cncc5cnn(C)c45)c(=O)c3s2)c(Cl)cc1Cl [Example 667] | 14 | 18.7 | – | – | –
COc1ccc(Cl)c(-c2cc3[nH]c(=O)n(-c4cncc5ccc(N6CCO[C@H](C(F)(F)F)C6)cc45)c(=O)c3s2)c1 [Example 415] | 11.7 | – | – | – | 26.6
COc1ccc(Cl)c(-c2cc3[nH]c(=O)n(-c4cncc5c(Cl)cccc45)c(=O)c3s2)c1 [Example 595] | 476 | 1180 | – | – | –
Cc1cncc(-n2c(=O)[nH]c3cc(-c4ccccc4Cl)ccc3c2=O)c1OCC(F)(F)F [Example 374] | – | 1240 | 1130 | – | –
COc1cnc(Cl)c(-c2cc3[nH]c(=O)n(-c4cncc5cnn(C)c45)c(=O)c3s2)c1 [Example 668] | 23 | 123 | – | – | –
COCCn1c(=O)n(-c2cncc3ccccc23)c(=O)c2sc(-c3ccccc3Cl)cc21 [Example 470, 6-(2-chlorophenyl)-3-(4-isoquinolyl)-1-(2-methoxyethyl)thieno[3,2-d]pyrimidine-2,4-dione] | 46.8 | 71.3 | – | – | –
Cc1cc(Cl)c(-c2cc3[nH]c(=O)n(-c4cncc5ccccc45)c(=O)c3s2)cc1C#N [Example 548] | 7.55 | 114 | – | – | –
COc1cc(-c2cc3c(s2)c(=O)n(-c2cncc4cnn(C)c24)c(=O)n3CC(F)(F)F)c(Cl)cc1F [Example 1066] | 15.3 | 19.9 | – | – | –
COc1cc(-c2cc(OC)c3c(=O)n(-c4cncc5ccccc45)c(=O)[nH]c3c2)c(C#N)cc1F [Example 679] | 25.4 | 80.1 | – | – | –
